Measured values taken from ChEMBL document CHEMBL1148065, “Two new flavones from Calliandra californica” (1994).
Active and inactive are the calls of the source. The calls are words filed in the database; no cut-off is given here.

Key:
[1] = test system: Bacillus subtilis; assay: Antimicrobial activity against Bacillus subtilis at 1 mg/disk; assay type: functional
[2] = test system: Staphylococcus aureus; assay: Antimicrobial activity against Staphylococcus aureus at 1 mg/disk; assay type: functional

Row | SMILES | inhibition zone (IZ) [1] | inhibition zone (IZ) [2] | Activity [1] | Activity [2]
1 | COc1cc(O)c2c(=O)cc(-c3cc(OC)c(OC)cc3OC)oc2c1 | 11 mm | 8 mm |  | 
2 | COc1ccc2c(=O)cc(-c3cc(OC)c(OC)cc3OC)oc2c1 |  |  | inactive | inactive
